Structures are written as SMILES. In brackets after ≈: the same amount, converted by molar mass. Bridge positions count the residues as written; N and C are the ends. Square brackets hold non-standard residues; d marks the D form. Peptide text beside a SMILES is read from it. * marks the point of attachment. Ileψ(thiazoline)Cys = CC[C@H](C)[C@H](N)C1=N[C@H](C(=O)*)CS1; dOrn = NCCC[C@@H](N)C(=O)O

Common to all, as to format: functional
Test [1] has as its system Listeria monocytogenes. The test can be described thus: Antimicrobial activity against anrB-deficient Listeria monocytogenes EGD-e at 10 ug after 16 hrs by disk diffusion assay. To be noted: read-out: IZ. For orientation: A growth-free zone around the sample is the usual read-out of agar diffusion tests.
The test system of test [2] is Listeria monocytogenes. The test is described as follows: Antimicrobial activity against anrB-deficient Listeria monocytogenes EGD-e assessed as growth inhibition after 16 hrs by broth dilution method relative to wild type. On the technique in general: Broth dilution looks for growth in wells or tubes with falling amounts of substance.
The test system of test [3] is Listeria monocytogenes. The test is described as follows: Antimicrobial activity against Listeria monocytogenes EGD-e assessed as growth inhibition after 16 hrs by broth dilution method.
Test [4] relates to Listeria monocytogenes. The test is described as follows: Antimicrobial activity against anrB-deficient Listeria monocytogenes EGD-e assessed as growth inhibition after 16 hrs by broth dilution method.
For test [5], the system named is Listeria monocytogenes. The test is described as follows: Antimicrobial activity against Listeria monocytogenes EGD-e at 10 ug after 16 hrs by disk diffusion assay. To be noted: read-out: IZ.
Test [6] has as its system Listeria monocytogenes. The test can be described thus: Antimicrobial activity against mprF-deficient Listeria monocytogenes EGD-e assessed as growth inhibition after 16 hrs by broth dilution method.
The subject of test [7] is Listeria monocytogenes. The test is described as follows: Antimicrobial activity against virR-deficient Listeria monocytogenes EGD-e assessed as growth inhibition after 16 hrs by broth dilution method relative to wild type.
Test [8] deals with Listeria monocytogenes. The test can be described thus: Antimicrobial activity against mprF-deficient Listeria monocytogenes EGD-e assessed as growth inhibition after 16 hrs by broth dilution method relative to wild type.
The subject of test [9] is Listeria monocytogenes. The test can be described thus: Antimicrobial activity against telA-deficient Listeria monocytogenes EGD-e assessed as growth inhibition after 16 hrs by broth dilution method relative to wild type.
Test [10] relates to Listeria monocytogenes. The test can be described thus: Antimicrobial activity against lisK-deficient Listeria monocytogenes EGD-e assessed as growth inhibition after 16 hrs by broth dilution method relative to wild type.
Test [11] has as its system Listeria monocytogenes. The test is described as follows: Antimicrobial activity against lisK-deficient Listeria monocytogenes EGD-e assessed as growth inhibition after 16 hrs by broth dilution method.
Test [12] relates to Listeria monocytogenes. The test is described as follows: Antimicrobial activity against telA-deficient Listeria monocytogenes EGD-e assessed as growth inhibition after 16 hrs by broth dilution method.
Test [13] deals with Listeria monocytogenes. The test can be described thus: Antimicrobial activity against virR-deficient Listeria monocytogenes EGD-e assessed as growth inhibition after 16 hrs by broth dilution method.
The subject of test [14] is Listeria monocytogenes. The test is described as follows: Antimicrobial activity against anrB-deficient Listeria monocytogenes EGD-e at 100 ug after 16 hrs by disk diffusion assay. Conditions: read-out: IZ.
Test [15] has as its system Listeria monocytogenes. The test can be described thus: Antimicrobial activity against Listeria monocytogenes EGD-e at 100 ug after 16 hrs by disk diffusion assay. To be noted: read-out: IZ.
Test [16] deals with Listeria monocytogenes. The test can be described thus: Antimicrobial activity against anrB-deficient Listeria monocytogenes EGD-e at 30 ug after 16 hrs by disk diffusion assay. Conditions: read-out: IZ.
In test [17] the test system is Listeria monocytogenes. The test can be described thus: Antimicrobial activity against Listeria monocytogenes EGD-e at 30 ug after 16 hrs by disk diffusion assay. To be noted: read-out: IZ.
Test [18] has as its system Listeria monocytogenes. The test is described as follows: Antimicrobial activity against anrB-deficient Listeria monocytogenes EGD-e at 1 ug after 16 hrs by disk diffusion assay. To be noted: read-out: IZ.
Test [19] relates to Listeria monocytogenes. The test is described as follows: Antimicrobial activity against Listeria monocytogenes EGD-e at 1 ug after 16 hrs by disk diffusion assay. Conditions: read-out: IZ.
Test [20] concerns Listeria monocytogenes. The test can be described thus: Antimicrobial activity against anrB-deficient Listeria monocytogenes EGD-e at 5 ug after 16 hrs by disk diffusion assay. To be noted: read-out: IZ.
Test [21] relates to Listeria monocytogenes. The test can be described thus: Antimicrobial activity against Listeria monocytogenes EGD-e at 5 ug after 16 hrs by disk diffusion assay. Conditions: read-out: IZ.

In general, MIC refers to the least concentration at which growth counts as inhibited. On to `CC1(C)S[C@@H]2[C@H](NC(=O)[C@H](N)c3ccccc3)C(=O)N2[C@H]1C(=O)O` [AMPICILLIN], for which the zone of inhibition at 10 µg/disc in the test on Listeria monocytogenes [1] came to 36.6 mm; in the test on Listeria monocytogenes [5], 32.8 mm. In the test with Listeria monocytogenes [2], the “fold change (FC)” value is recorded as 2. Besides, the values for the MIC with Listeria monocytogenes [3] and in the test with Listeria monocytogenes [4] were 1 µg/mL (≈ 2.86 µM) and 0.5 µg/mL (≈ 1.43 µM), respectively.
In the case of `CC[C@H](C)[C@H](N)C1=N[C@H](C(=O)N[C@@H](CC(C)C)C(=O)N[C@H](CCC(=O)O)C(=O)N[C@H](C(=O)N[C@H]2CCCCNC(=O)[C@H](CC(N)=O)NC(=O)[C@@H](CC(=O)O)NC(=O)[C@H](Cc3cnc[nH]3)NC(=O)[C@@H](Cc3ccccc3)NC(=O)[C@H]([C@@H](C)CC)NC(=O)[C@@H](CCCN)NC2=O)[C@@H](C)CC)CS1` [BACITRACIN] ({Ileψ(thiazoline)Cys}-L[dE]IK[dOrn]I[dF]H[dD]N; lactam 4-C), the zone of inhibition at 10 µg/disc with Listeria monocytogenes [1] worked out at 20 mm; with Listeria monocytogenes [5], 10.5 mm. Moreover, the “fold change (FC)” value with Listeria monocytogenes [2] was found to be 8. Also, the MIC with Listeria monocytogenes [3] worked out at 256 µg/mL (≈ 180 µM); with Listeria monocytogenes [4] it was 32 µg/mL (≈ 22.5 µM); in the test on Listeria monocytogenes [6], 64 µg/mL (≈ 45 µM); with Listeria monocytogenes [11], 128 µg/mL (≈ 90 µM); in the test with Listeria monocytogenes [12], 128 µg/mL (≈ 90 µM); in the test on Listeria monocytogenes [13] it was 2 µg/mL (≈ 1.41 µM). The Ratio was -128 with Listeria monocytogenes [7], -4 with Listeria monocytogenes [8], -2 in the test with Listeria monocytogenes [9] and -2 in the test on Listeria monocytogenes [10].
Consider `CC1(C)S[C@@H]2[C@H](NC(=O)C(C(=O)O)c3ccccc3)C(=O)N2[C@H]1C(=O)O` (stereo partly drawn) [CARBENICILLIN], for which the results for the zone of inhibition at 100 µg/disc in the test with Listeria monocytogenes [14] and in the test on Listeria monocytogenes [15] were 43 mm and 36.7 mm, respectively.
In the case of `N[C@@H](C(=O)N[C@@H]1C(=O)N2C(C(=O)O)=C(Cl)CS[C@H]12)c1ccccc1` [CEFACLOR ANHYDROUS], the zone of inhibition at 30 µg/disc in the test with Listeria monocytogenes [16] was 24.8 mm; in the test on Listeria monocytogenes [17], 22.2 mm.
Turning to `CO[C@@]1(NC(=O)CSCC#N)C(=O)N2C(C(=O)O)=C(CSc3nnnn3C)CS[C@@H]21` [CEFMETAZOLE], the zone of inhibition at 30 µg/disc was 34.2 mm in the test on Listeria monocytogenes [16] and 31.4 mm with Listeria monocytogenes [17].
Take `CCN1CCN(C(=O)N[C@@H](C(=O)N[C@@H]2C(=O)N3C(C(=O)O)=C(CSc4nnnn4C)CS[C@H]23)c2ccc(O)cc2)C(=O)C1=O` [CEFOPERAZONE]: the zone of inhibition at 30 µg/disc in the test on Listeria monocytogenes [16] was 24 mm; in the test on Listeria monocytogenes [17], 20.6 mm.
For the compound `CO/N=C(\C(=O)N[C@@H]1C(=O)N2C(C(=O)O)=C(COC(C)=O)CS[C@H]12)c1csc(N)n1` [CEFOTAXIME], the zone of inhibition at 30 µg/disc with Listeria monocytogenes [16] amounted to 22.5 mm; in the test with Listeria monocytogenes [17], 19.6 mm. The “fold change (FC)” value with Listeria monocytogenes [2] is listed as 2. Moreover, the figures for the MIC in the test on Listeria monocytogenes [3] and in the test with Listeria monocytogenes [4] were 2 µg/mL (≈ 4.39 µM) and 1 µg/mL (≈ 2.2 µM), respectively.
Take `CC(C)(O/N=C(\C(=O)N[C@@H]1C(=O)N2C(C(=O)[O-])=C(C[n+]3ccccc3)CS[C@H]12)c1csc(N)n1)C(=O)O` [CEFTAZIDIME]: the zone of inhibition at 30 µg/disc is 7.8 mm with Listeria monocytogenes [16] and 6.1 mm in the test on Listeria monocytogenes [17].
`CO/N=C(\C(=O)N[C@@H]1C(=O)N2C(C(=O)O)=C(COC(N)=O)CS[C@H]12)c1ccco1` [CEFUROXIME]: the zone of inhibition at 30 µg/disc stood at 24.8 mm in the test on Listeria monocytogenes [16] and 21.3 mm with Listeria monocytogenes [17]. In addition, the “fold change (FC)” value in the test on Listeria monocytogenes [2] turned out to be 2. The MIC in the test on Listeria monocytogenes [3] is 2.87 µg/mL (≈ 6.76 µM); in the test with Listeria monocytogenes [4], 1.44 µg/mL (≈ 3.39 µM).
Consider `CC1=C(C(=O)O)N2C(=O)[C@@H](NC(=O)[C@H](N)c3ccccc3)[C@H]2SC1` [CEPHALEXIN ANHYDROUS], for which the zone of inhibition at 30 µg/disc was found to be 14.8 mm in the test on Listeria monocytogenes [16] and 12.2 mm with Listeria monocytogenes [17].
On to `CC(=O)OCC1=C(C(=O)O)N2C(=O)[C@@H](NC(=O)Cc3cccs3)[C@H]2SC1` [CEPHALOTHIN], for which the values for the zone of inhibition at 30 µg/disc in the test on Listeria monocytogenes [16] and in the test with Listeria monocytogenes [17] were 33.6 mm and 30.3 mm, respectively.
Take `CC1=C(C(=O)O)N2C(=O)[C@@H](NC(=O)[C@H](N)C3=CCC=CC3)[C@H]2SC1` [CEPHRADINE]: the zone of inhibition at 30 µg/disc in the test with Listeria monocytogenes [16] is 16.9 mm; with Listeria monocytogenes [17] it was 13.6 mm.
Consider `C/C=C(/NC(=O)[C@H](CCCCN)NC(=O)[C@H](C)NC(=O)[C@H]1CS[C@@H](C)[C@@H](NC(=O)[C@H]2CSC[C@@H](NC(=O)[C@H](C)NC(=O)[C@@H](N)[C@@H](C)CC)C(=O)N[C@@H](CCCCN)C(=O)N[C@@H](Cc3ccccc3)C(=O)N[C@@H](CC(C)C)C(=O)N2)C(=O)N2CCC[C@H]2C(=O)NCC(=O)N1)C(=O)NCC(=O)N[C@@H]1CSC[C@H]2NC(=O)[C@H](Cc3ccc(O)cc3)NC(=O)[C@@H](CS/C=C/NC2=O)NC(=O)[C@H](CC(N)=O)NC(=O)[C@H](Cc2ccccc2)NC1=O` [GALLIDERMIN], for which, in the test with Listeria monocytogenes [2], the “fold change (FC)” value was 4. Besides, the results for the MIC with Listeria monocytogenes [3] and in the test with Listeria monocytogenes [4] were 2 µg/mL (≈ 0.924 µM) and 0.5 µg/mL (≈ 0.231 µM), respectively.
As to `C[C@@H](O)[C@H]1C(=O)N2C(C(=O)O)=C(SCCNC=N)C[C@H]12` [IMIPENEM ANHYDROUS], the zone of inhibition at 30 µg/disc in the test with Listeria monocytogenes [16] amounted to 42.3 mm; in the test on Listeria monocytogenes [17], 39.7 mm.
Take `C=C(NC(=O)[C@@H](NC(=O)[C@H](Cc1cnc[nH]1)NC(=O)[C@@H](NC(=O)[C@H](CO)NC(=O)[C@@H]1CS[C@@H](C)[C@H]2NC(=O)C(=C)NC(=O)[C@H](NC(=O)[C@H](CCCCN)NC(=O)[C@H](CCSC)NC(=O)[C@H](CC(N)=O)NC(=O)[C@@H]3CS[C@@H](C)[C@@H](NC(=O)[C@H](CCCNN)NC(=O)[C@@H]4CS[C@@H](C)[C@@H](NC(=O)[C@@H]5CSC[C@@H](NC(=O)/C(=C\C)NC(=O)[C@@H](N)[C@@H](C)CC)C(=O)N[C@@H]([C@@H](C)CC)C(=O)NC(=C)C(=O)N[C@@H]([C@@H](C)CC)C(=O)N5)C(=O)N5CCC[C@H]5C(=O)NCC(=O)N4)C(=O)NCC(=O)N[C@@H](C)C(=O)N[C@@H]([C@@H](C)CC)C(=O)N[C@@H](CCSC)C(=O)NCC(=O)N3)[C@H](C)SC[C@H](NC2=O)C(=O)N[C@H](Cc2cnc[nH]2)C(=O)N1)[C@@H](C)CC)C(C)C)C(=O)N[C@@H](CCCCN)C(=O)O` [NISIN]: the “fold change (FC)” value with Listeria monocytogenes [2] turned out to be 2. Further, the Ratio was -32 with Listeria monocytogenes [7], -16 with Listeria monocytogenes [8], -2 in the test with Listeria monocytogenes [9] and 2 with Listeria monocytogenes [10].
Take `Cc1onc(-c2ccccc2)c1C(=O)N[C@@H]1C(=O)N2[C@@H]1SC(C)(C)[C@@H]2C(=O)O` [OXACILLIN]: the zone of inhibition at 1 µg/disc was found to be 11.9 mm in the test with Listeria monocytogenes [18] and 9.6 mm in the test with Listeria monocytogenes [19].
As to `CC1(C)S[C@@H]2[C@H](NC(=O)Cc3ccccc3)C(=O)N2[C@H]1C(=O)O` [PENICILLIN G], the zone of inhibition at 5 µg/disc in the test with Listeria monocytogenes [20] came to 34.7 mm; with Listeria monocytogenes [21] it was 30.5 mm. Also, the “fold change (FC)” value with Listeria monocytogenes [2] was determined as 2. Further, the minimal inhibitory concentration (MIC) was determined as 0.72 µg/mL (≈ 2.15 µM) in the test with Listeria monocytogenes [3] and 0.36 µg/mL (≈ 1.08 µM) with Listeria monocytogenes [4].
Regarding `CCN1CCN(C(=O)N[C@@H](C(=O)N[C@@H]2C(=O)N3[C@@H]2SC(C)(C)[C@@H]3C(=O)O)c2ccccc2)C(=O)C1=O` [PIPERACILLIN], the values for the zone of inhibition at 30 µg/disc in the test on Listeria monocytogenes [16] and in the test on Listeria monocytogenes [17] were 35.3 mm and 30.7 mm, respectively.

Values taken from ChEMBL document CHEMBL1671725, “The ABC transporter AnrAB contributes to the innate resistance of Listeria monocytogenes to nisin, bacitracin, and various beta-lactam antibiotics” (2010).
